{
  "source": "paper PMC3836906",
  "about": "(Cancer chemotherapy and pharmacology, 2013)",
  "key": {"[1]": {"settings": "in vivo"}, "in vivo [2]": {"test": "in vivo", "settings": "CD2F1, mouse, iv, 20 mg/kg"}, "mice [3]": {"system": "mice", "settings": "mouse, in vivo"}, "[4]": {"settings": "mouse, in vivo"}, "[5]": {"system": "human RXF-393 renal carcinoma cell xenografts", "settings": "mouse, in vivo; cited from earlier work"}, "[6]": {"system": "human 786-0 renal cell tumors", "settings": "mouse, in vivo; cited from earlier work"}, "[7]": {"system": "human ACHN renal cell tumors", "settings": "mouse, in vivo; cited from earlier work"}, "[8]": {"system": "A498 human renal cell cancer xenografts", "settings": "in vivo; cited from earlier work"}, "cell cycle": {"system": "cell cycle", "settings": "cited from earlier work"}, "renal carcinoma cells": {"system": "renal carcinoma cells", "settings": "cited from earlier work"}, "in vivo [9]": {"test": "in vivo", "settings": "CD2F1, mouse, iv, 20 mg/kg", "remark": "listed apart in the source"}, "mice [10]": {"system": "mice", "settings": "mouse, in vivo", "remark": "listed apart in the source"}, "RBC ALDH": {"system": "RBC ALDH", "settings": "mouse, in vivo, ip, 300 mg/kg; cited from earlier work"}, "liver ALDH": {"system": "liver ALDH", "settings": "mouse, in vivo, ip, 300 mg/kg; cited from earlier work"}, "ALDH1B1": {"system": "ALDH1B1", "settings": "cited from earlier work"}},
  "note": "Values joined by “and” are separate entries in the source; they are usually repeats but may differ in a detail not shown here. Equal values may be shown once. Read-outs that look alike come from different tables or passages of the source.",
  "data": [
    {"compound": "Cc1cc(N(CCO)CCO)ccc1C(=O)O", "note": "[BA-(OH)2, 4-[bis[2-hydroxy-ethyl]amino]-2-methyl-benzoic acid]", "values": [
      {"measurement": "Cl/F", "setting": "[1]; mouse", "value": "1.90 mL/min/kg and 1.20 mL/min/kg"},
      {"measurement": "Tmax", "setting": "[1]; mouse", "value": 10, "unit": "min"},
      {"measurement": "Vd/F", "setting": "[1]; mouse", "value": "83 L/kg and 60 L/kg"},
      {"measurement": "Tmax", "setting": "in vivo [2]; plasma", "value": 10, "unit": "min"},
      {"measurement": "half-life", "setting": "in vivo [2]; plasma, Half-life, BEN 20 mg/kg iv alone", "value": 29, "unit": "min"}
    ]},
    {"compound": "Cc1cc(N(CCOS(C)(=O)=O)CCOS(C)(=O)=O)ccc1C=O", "note": "[BEN, 4-[bis[2-[(methylsulfonyl)-oxy]ethyl]amino]-2-methyl-benzaldehyde]", "values": [
      {"measurement": "Increase of BEN plasma exposure by disulfiram pretreatment", "setting": "[1]; CD2F1, mouse", "value": 368, "unit": "fold"},
      {"measurement": "Time after administration at which analyte became undetectable in plasma", "setting": "[1]; CD2F1, mouse", "value": 15, "unit": "min"},
      {"measurement": "Cl/F", "setting": "[1]; CD2F1, mouse, iv, 20 mg/kg", "value": 0.18, "unit": "mL/min/kg"},
      {"measurement": "Tmax", "setting": "[1]; CD2F1, mouse, iv, 20 mg/kg", "value": 5, "unit": "min"},
      {"measurement": "Vd/F", "setting": "[1]; CD2F1, mouse, iv, 20 mg/kg", "value": 120, "unit": "L/kg"},
      {"measurement": "Day after dosing by which blood values returned to normal", "setting": "mice [3]", "value": "≤ 14", "unit": "days"},
      {"measurement": "Effect of disulfiram pretreatment on percentage lymphocytes nadir", "setting": "mice [3]", "value": "appeared to deepen"},
      {"measurement": "Hematocrits, white blood cells and percent lymphocytes following treatment", "setting": "mice [3]", "value": "decreased"},
      {"measurement": "Body weight loss", "setting": "[4]", "value": "approximately 12%"},
      {"measurement": "Cure rate", "setting": "[5]", "value": "> 70", "unit": "%"},
      {"measurement": "Anti-tumor activity", "setting": "[6]", "value": "significant activity"},
      {"measurement": "Anti-tumor activity", "setting": "[7]", "value": "significant activity"},
      {"measurement": "Effect on xenograft growth", "setting": "[8]", "value": "slowed the growth"},
      {"measurement": "Cell cycle effect", "setting": "cell cycle", "value": "S and G2/M cell cycle arrest"},
      {"measurement": "Activity in NCI 60 cell line screen", "setting": "renal carcinoma cells", "value": "specific activity"},
      {"measurement": "Tmax", "setting": "in vivo [2]; in vivo", "value": 5, "unit": "min"},
      {"measurement": "CL renal", "setting": "in vivo [9]", "value": 0.4, "unit": "mL/min"}
    ]},
    {"compound": "CS(=O)(=O)OCCCCOS(C)(=O)=O", "note": "[busulfan, reference compound]", "values": [
      {"measurement": "Anti-tumor activity", "setting": "[5]", "value": "no activity"}
    ]},
    {"compound": "CCN(CC)C(=S)SSC(=S)N(CC)CC", "note": "[disulfiram, Tetraethylthiuram disulfide]", "values": [
      {"measurement": "Hepatic pathology", "setting": "mice [10]", "value": "mild hepatic lesions"},
      {"measurement": "Body weight loss", "setting": "[4]", "value": "approximately 12%"},
      {"measurement": "Reduction of ALDH activity in RBC compared to controls", "setting": "RBC ALDH", "value": 81, "unit": "%"},
      {"measurement": "Reduction of ALDH activity in liver compared to controls", "setting": "liver ALDH", "value": 27, "unit": "%"},
      {"measurement": "Sensitivity of ALDH1B1 to inhibition", "setting": "ALDH1B1", "value": "insensitive to inhibition"}
    ]}
  ]
}
